# Laboratory results from patent US20260035403A1, “NUCLEOSIDE LINE-1 INHIBITORS” (TRANSPOSON THERAPEUTICS, INC., priority 2022, published 2026).
# Test system: human LINE-1
# Experiment: Human LINE-1 retrotransposition assay (HeLa cell-based dual-luciferase reporter)
# Details: Homo sapiens, HeLa, 72 h, Human LINE-1 activity inhibition; HeLa cells, reporter plasmid pYX017, Firefly/Renilla, 72 h incubation
# Description: Representative Compounds of the Disclosure were tested for inhibition of retrotransposition activity of human LINE-1 in HeLa cells according to the following procedure.
# HeLa cervical cancer cells were cultivated at 37° C. in a humidified 5% CO2 incubator in Dulbecco's Modified Eagle's Medium (DMEM)—high glucose, with 4500 mg/L glucose, L-glutamine, sodium pyruvate and sodium bicarbonate (Sigma), supplemented with 10% of heat inactivated fetal bovine serum (Thermo Fisher).
# Assays were performed using reporter plasmid pYX017 as described (Xie, et al., 2011) with several modifications. The reporter assay was performed in 96-well white optical bottom plates. HeLa cells were seeded in wells 24 h prior to transfection and compound treatment so that cells were approximately 30% confluent on the day of transfection. Different cell plating densities were tested and a density of 2×10^3 cells was determined to be optimal.
# Compounds were resuspended in DMSO. Serial dilutions (1:3) were prepared in DMSO. Medium containing different concentrations of the compounds were prepared by adding 2 μl of the compound dilution to 1 ml of the culture medium. The final concentration of DMSO in the medium was 0.2%.
# FuGENE® HD transfection reagent (Promega, E2311, Lot 382574 and Lot 397842) was used to transfect the plasmids into the cells. The transfection reagent: DNA mixture was prepared in OpiMEM (Thermo Fisher) according to manufacturer's instructions. Different ratios of transfection reagent to DNA were tested and a ratio of 3:1 was determined to be optimal. Culture medium was removed from the cells and discarded. The transfection reagent: DNA mixture (5 μl) was mixed with the compound containing medium (100 μl/well) and this was added onto the cells of each well. Cells were incubated at 37° C./5% CO2 for different incubation time. A 72 h incubation time was determined to be optimal.
# Luciferase reporter activity was quantified with the Dual-Luciferase® Reporter Assay System (Promega) according to manufacturer's instructions for multiwell plates except that cells were lysed directly on the multiwell plate with 30 μl of the passive lysis buffer (PLB) for 20 min at room temperature, with gentle shaking to ensure complete cell lysis.
# Firefly and Renilla luciferase signals were measured using a SpectraMax i3× Multi-Mode Microplate Reader. Integration times of 100 ms and 10 ms were used to measure the Firefly and Renilla signals respectively. Relative L1 activity is calculated as Firefly/Renilla*1000 or Firefly/Renilla*10,000. Dose response inhibition data were fit to a four parameter logistic equation using non-linear regression (using Graphpad Prism 8), to determine IC50 values for each inhibitor.
row,SMILES,IC50
1,CC[C@]1(CO)O[C@@H](n2cnc3c(O)ncnc32)C[C@@H]1O [Cpd. No. 1],0.062 µM
2,"CC[C@]1(CO)O[C@@H](n2cc(Br)c(=O)[nH]c2=O)C[C@@H]1O [Cpd. No. 2, 5-bromo-1-((2R,4S,5R)-5-ethyl-4-hydroxy-5-(hydroxymethyl)tetrahydrofuran-2-yl)-4-hydroxypyrimidin-2(1H)-one]",6.9 µM
3,"C#C[C@]1(CO)O[C@H](n2nc(C)c3c(N)nc(F)nc32)C[C@@H]1O [Cpd. No. 3, (2R,3S,5S)-5-(4-amino-6-fluoro-3-methyl-1H-pyrazolo[3,4-d]pyrimidin-1-yl)-2-ethynyl-2-(hydroxymethyl)tetrahydrofuran-3-ol]",0.041 µM
4,"C=C[C@]1(CO)O[C@@H](n2cnc3c(NC4CC4)nc(N)nc32)C[C@@H]1O [Cpd. No. 4, (2R,3S,5R)-5-(2-amino-6-(cyclopropylamino)-9H-purin-9-yl)-2-(hydroxymethyl)-2-vinyltetrahydrofuran-3-ol]",0.401 µM
5,"C=C[C@]1(CO)O[C@@H](n2cnc3c(NC4CC4)nc(F)nc32)C[C@@H]1O [Cpd. No. 5, (2R,3S,5R)-5-(6-(cyclopropylamino)-2-fluoro-9H-purin-9-yl)-2-(hydroxymethyl)-2-vinyltetrahydrofuran-3-ol]",0.469 µM
6,"C=C[C@]1(CO)O[C@@H](n2cc(OC)c(=O)[nH]c2=O)C[C@@H]1O [Cpd. No. 6, 1-((2R,4S,5R)-4-hydroxy-5-(hydroxymethyl)-5-vinyltetrahydrofuran-2-yl)-5-methoxypyrimidine-2,4(1H,3H)-dione]",> 50 µM
7,"C=C[C@]1(CO)O[C@@H](n2cc(F)c(N)nc2=O)C[C@@H]1O [Cpd. No. 8, 4-amino-5-fluoro-1-((2R,4S,5R)-4-hydroxy-5-(hydroxymethyl)-5-vinyltetrahydrofuran-2-yl)pyrimidin-2(1H)-one]",0.009 µM
8,"C=C[C@]1(CO)O[C@@H](n2cnc3c(O)nc(N)nc32)C[C@@H]1O [Cpd. No. 9, 2-amino-9-((2R,4S,5R)-4-hydroxy-5-(hydroxymethyl)-5-vinyltetrahydrofuran-2-yl)-1H-purin-6(9H)-one]",0.013 µM
9,"C#C[C@]1(CO)OC(n2cnc(C(N)=O)n2)C[C@@H]1O (stereo partly drawn) [Cpd. No. 11, 1-((4S,5R)-5-ethynyl-4-hydroxy-5-(hydroxymethyl)tetrahydrofuran-2-yl)-1H-1,2,4-triazole-3-carboxamide]",> 50 µM
10,"C=C[C@]1(CO)O[C@@H](n2cc(F)c(=O)[nH]c2=O)C[C@@H]1O [Cpd. No. 17, 5-fluoro-1-((2R,4S,5R)-4-hydroxy-5-(hydroxymethyl)-5-vinyltetrahydrofuran-2-yl)pyrimidine-2,4(1H,3H)-dione]",2.35 µM
11,"CC[C@]1(CO)O[C@@H](n2cc(F)c(=O)[nH]c2=O)C[C@@H]1O [Cpd. No. 18, 1-((2R,4S,5R)-5-ethyl-4-hydroxy-5-(hydroxymethyl)tetrahydrofuran-2-yl)-5-fluoropyrimidine-2,4(1H,3H)-dione]",3.75 µM
12,"CC[C@]1(CO)O[C@H](n2ccc(=O)[nH]c2=O)C[C@@H]1O [Cpd. No. 20, 1-((2S,4S,5R)-5-ethyl-4-hydroxy-5-(hydroxymethyl)tetrahydrofuran-2-yl)pyrimidine-2,4(1H,3H)-dione]",7.21 µM
13,"C=C[C@]1(CO)O[C@@H](n2cc(C)c(=O)[nH]c2=O)C[C@@H]1O [Cpd. No. 62, 1-((2R,4S,5R)-4-hydroxy-5-(hydroxymethyl)-5-vinyltetrahydrofuran-2-yl)-5-methylpyrimidine-2,4(1H,3H)-dione]",3.67 µM
14,"C=C[C@]1(CO)O[C@@H](n2cc(Br)c(=O)[nH]c2=O)C[C@@H]1O [Cpd. No. 64, 5-bromo-1-((2R,4S,5R)-4-hydroxy-5-(hydroxymethyl)-5-vinyltetrahydrofuran-2-yl)pyrimidine-2,4(1H,3H)-dione]",9.93 µM
15,"CC[C@]1(CO)OC(n2cc(OC)c(=O)[nH]c2=O)C[C@@H]1O (stereo partly drawn) [Cpd. No. 68, 1-((4S,5R)-5-ethyl-4-hydroxy-5-(hydroxymethyl)tetrahydrofuran-2-yl)-5-methoxypyrimidine-2,4(1H,3H)-dione]",0.721 µM
16,"C=C[C@]1(CO)O[C@@H](n2cc(C#N)c(=O)[nH]c2=O)C[C@@H]1O [Cpd. No. 69, 1-((2R,4S,5R)-4-hydroxy-5-(hydroxymethyl)-5-vinyltetrahydrofuran-2-yl)-2,4-dioxo-1,2,3,4-tetrahydropyrimidine-5-carbonitrile]",6.2 µM
17,"CC[C@]1(CO)OC(n2cc(Br)c(N)nc2=O)C[C@@H]1O (stereo partly drawn) [Cpd. No. 70, 4-amino-5-bromo-1-((4S,5R)-5-ethyl-4-hydroxy-5-(hydroxymethyl)tetrahydrofuran-2-yl)pyrimidin-2(1H)-one]",0.432 µM
18,"C#C[C@]1(CO)C=C[C@@H](n2cc(F)c(N)nc2=O)O1 [Cpd. No. 74, 4-amino-1-[(2S,5S)-5-ethynyl-5-(hydroxymethyl)-2H-furan-2-yl]-5-fluoro-pyrimidin-2-one]",> 50 µM
19,"C#C[C@]1(CO)O[C@@H](n2nc(C)c3c(N)nc(F)nc32)C[C@@H]1O [Cpd. No. 75, (2R,3S,5R)-5-(4-amino-6-fluoro-3-methyl-1H-pyrazolo[3,4-d]pyrimidin-1-yl)-2-ethynyl-2-(hydroxymethyl)tetrahydrofuran-3-ol]",> 50 µM
20,"C#C[C@@]1(CO)O[C@H](n2ccc(N)nc2=O)C[C@H]1O [Cpd. No. 76, 4-amino-1-((2S,4R,5S)-5-ethynyl-4-hydroxy-5-(hydroxymethyl)tetrahydrofuran-2-yl)pyrimidin-2(1H)-one]",> 6.25 µM
21,"C#C[C@@]1(CO)O[C@@H](n2ccc(N)nc2=O)C[C@H]1O [Cpd. No. 77, 4-amino-1-((2R,4R,5S)-5-ethynyl-4-hydroxy-5-(hydroxymethyl)tetrahydrofuran-2-yl)pyrimidin-2(1H)-one]",> 6.25 µM
22,"C#C[C@@]1(CO)O[C@@H](n2cnc3c(=O)[nH]c(N)nc32)C[C@H]1O [Cpd. No. 79, 2-amino-9-[(2R,4R,5S)-5-ethynyl-4-hydroxy-5-(hydroxymethyl)tetrahydrofuran-2-yl]-1H-purin-6-one]",17 µM
23,"C=C[C@]1(CO)O[C@@H](n2cc(Br)c(N)nc2=O)C[C@@H]1O [Cpd. No. 90, 4-amino-5-bromo-1-((2R,4S,5R)-4-hydroxy-5-(hydroxymethyl)-5-vinyltetrahydrofuran-2-yl)pyrimidin-2(1H)-one]",0.658 µM
24,"C=C[C@]1(CO)O[C@@H](n2cnc3c(NC4CC4)ncnc32)C[C@@H]1O [Cpd. No. 94, (2R,3S,5R)-5-(6-(cyclopropylamino)-9H-purin-9-yl)-2-(hydroxymethyl)-2-vinyltetrahydrofuran-3-ol]",> 50 µM
25,"CC[C@]1(CO)O[C@@H](n2cnc3c(NC4CC4)ncnc32)C[C@@H]1O [Cpd. No. 96, (2R,3S,5R)-5-(6-(cyclopropylamino)-9H-purin-9-yl)-2-ethyl-2-(hydroxymethyl)tetrahydrofuran-3-ol]",7 µM
26,"CC[C@]1(CO)O[C@@H](n2cnc3c(NC4CC4)nc(N)nc32)C[C@@H]1O [Cpd. No. 97, (2R,3S,5R)-5-(2-amino-6-(cyclopropylamino)-9H-purin-9-yl)-2-ethyl-2-(hydroxymethyl)tetrahydrofuran-3-ol]",0.946 µM
27,"CC[C@]1(CO)O[C@@H](n2cc(C#N)c(=O)[nH]c2=O)C[C@@H]1O [Cpd. No. 98, 1-((2R,4S,5R)-5-ethyl-4-hydroxy-5-(hydroxymethyl)tetrahydrofuran-2-yl)-4-hydroxy-2-oxo-1,2-dihydropyrimidine-5-carbonitrile]",> 25 µM
28,"CC[C@]1(CO)O[C@@H](n2cnc3c(NC4CC4)nc(F)nc32)C[C@@H]1O [Cpd. No. 99, (2R,3S,5R)-5-(6-(cyclopropylamino)-2-fluoro-9H-purin-9-yl)-2-ethyl-2-(hydroxymethyl)tetrahydrofuran-3-ol]",5.53 µM
29,"C=C[C@]1(CO)O[C@@H](n2cnc3c(O)ncnc32)C[C@@H]1O [Cpd. No. 100, 9-((2R,4S,5R)-4-hydroxy-5-(hydroxymethyl)-5-vinyltetrahydrofuran-2-yl)-9H-purin-6-ol]",1.7 µM
30,"C=C[C@]1(CO)O[C@@H](n2cnc3c(OC)nc(N)nc32)C[C@@H]1O [Cpd. No. 102, (2R,3S,5R)-5-(2-amino-6-methoxy-9H-purin-9-yl)-2-(hydroxymethyl)-2-vinyltetrahydrofuran-3-ol]",1.78 µM

# Same assay, conditions: Human LINE-1 activity inhibition; HeLa cells, reporter plasmid pYX017, Firefly/Renilla, 72 h incubation
row,SMILES,IC50
1,"C#C[C@@]1(CO)C=C[C@H](n2cc(F)c(=O)[nH]c2=O)O1 [Cpd. No. 19, 1-((2R,5R)-5-ethynyl-5-(hydroxymethyl)-2,5-dihydrofuran-2-yl)-5-fluoropyrimidine-2,4(1H,3H)-dione]",> 50 µM
